Values of other authors in patent publication US20200138036A1, “FUMIGANT FORMULATION” (Linde Aktiengesellschaft, priority 2017, published 2020).
Structures can show the parent of a compound that is named as a salt.

Settings: at 20° C.

CCOC=O [Ethyl formate]
vapour pressure: 25.9 kPa
